Among the data in ChEMBL document CHEMBL3507680, “University of Dundee, Gates Library screen for HepG2 cell viability” are cytotoxicity values, retold here.

This series in a line: Human HepG2 cell viability assay in 384 well format. Format: toxicity, cell-based. Also on record: dose 125 nL, time 70.5 hour; cytotoxicity at 70.5 h: concentration not given beside the values. The conditions noted are these: HepG2 cells, read-out: Inhibition.

For the compound `CC(C)c1cc(N2CCC3(CC2)CN(C)CCN3C)ncn1`, the cytotoxicity at 70.5 h is -4.93%. As for `Cc1cc(C)n(CC2(CNC(=O)C(c3ccccc3F)N(C)C)CC2)n1` (centres undefined), the cytotoxicity at 70.5 h was -5.49%.

Take `CC(=O)c1cccc(C(=O)N2C[C@@H](CN3CCCCCC3)[C@@H](CO)C2)c1`: the cytotoxicity at 70.5 h is -5.31%. In the case of `Cc1ccc2[nH]c(=O)c(CN(C)Cc3cc(C4CC4)[nH]n3)cc2c1` it was 11.1%; in that of `CC(C)c1noc(C2CC(=O)N(CCN(C)C)C2)n1` (centres undefined), -8.25%; in that of `c1ccc(CCN2CCN(C3CCOC4(CCOCC4)C3)CC2)cc1` (centres undefined), -5.08%. The same measure for `CC(NC1CCSCC1)c1ccccc1-n1cccn1` (centres undefined): -11.7%; for `Cc1nc(CCN2CCC(Oc3ccccc3F)CC2)cs1`: 9.73%. Regarding `COc1cccc2c1OCC(CNC(=O)CCn1cnnn1)C2` (centres undefined), the cytotoxicity at 70.5 h was -1.24%.

Consider `CCCn1cc(C(=O)NC(C)c2c(C)nn(CC)c2C)c(C)n1` (centres undefined), for which the cytotoxicity at 70.5 h is -8.59%.

For the compound `CN(Cc1nc(Cc2cccc(C(F)(F)F)c2)no1)C1CCCCC1`, the cytotoxicity at 70.5 h is -10.4%. In the case of `CC(C)c1cc(C(=O)NCCN2CCCCC2CO)on1` (centres undefined) it was -7%; in that of `CCc1ccc(-c2cn3c(C(=O)NCC(C)C(=O)NC)csc3n2)cc1` (centres undefined), -1.36%; in that of `O=c1c(C(F)(F)F)cccn1Cc1nnc(-c2cccnc2)o1`, -0.729%. In the case of `O=C(NC1CC1)C1CNCCN1C(=O)CCOc1ccccc1` (centres undefined) it was -0.757%; in that of `CCN(CC)C(=O)[C@@H]1C[C@H](n2cc(-c3cccc(OC)c3)nn2)CN1`, -3.79%. The same measure for `Cc1cccc2c(=O)c(C(=O)N3CCCC4(CN(C)C(=O)O4)C3)c[nH]c12` (centres undefined): -3.6%; for `Cn1cnc2cc(C(=O)N3CCC(c4ccccc4C(=O)O)C3)cnc21` (centres undefined): -8.01%. As to `OC1(CNc2ccc(-c3nc(C4CC4)no3)cn2)CCCCC1`, the cytotoxicity at 70.5 h is 22%. The same measure for `CCc1cc(NC2CCN(Cc3ccccc3F)CC2)n2nccc2n1`: -16.6%; for `CN1CCN(Cc2ccccc2Oc2nccc3occc23)CC1`: -1.68%; for `O=C1CC2(CCN(C(=O)c3csc(-c4ccccc4)n3)C2)C(=O)N1` (centres undefined): -5.85%. In the case of `OC1(CN2CCCCC2)CCN(c2cc(C(F)(F)F)ccn2)C1` (centres undefined), the cytotoxicity at 70.5 h was -22.3%.

For the compound `CCc1ncc(C(=O)N(C)Cc2cc(-c3ccncc3)no2)cn1`, the cytotoxicity at 70.5 h was determined as 35.7%. The same measure for `CCN(Cc1cccc2c1OCO2)CC1CCCO1` (centres undefined): -6.33%; for `O=C(Nc1ccc(-n2cccn2)cc1)N1CCOCC(O)C1` (centres undefined): -20.9%. In the case of `CCOc1ccccc1CC(=O)N1CCCC(c2ncc[nH]2)C1` (centres undefined) it was -0.431%; in that of `CC(C)(C)c1cn(C2CCN(C(=O)c3cncnc3)CC2)nn1`, 18%.

Turning to `Cc1ccc(C2(CN3CCN(c4ncccn4)CC3)CCNCC2)nc1`, the cytotoxicity at 70.5 h was -1.1%. For `Nc1cc(-c2cc(O)cc(C(=O)O)c2)c2cc[nH]c2n1`, the cytotoxicity at 70.5 h is -10.3%.

As for `CCC[C@@H]1CN(C(=O)c2ccccc2-c2ncc[nH]2)C[C@H]1N(C)C`, the cytotoxicity at 70.5 h was -2.55%.

Turning to `CSc1ccc(CCN2CCN([C@H]3CCCC[C@@H]3O)CC2)cc1`, the cytotoxicity at 70.5 h was -8.75%. In the case of `CN(C)CCCC(=O)N1C[C@H]2CC[C@@H]1CN(Cc1ccccc1)C2` it was -6.09%; in that of `O=C(NCC(F)(F)F)C(c1cccnc1)N1CCOCC1` (centres undefined), -5.8%. For `CCn1nc(CC(C)C)cc1C(=O)N1CCCOC(CN2CCCC2)C1` (centres undefined), the cytotoxicity at 70.5 h was -3.36%.

For `CN(C)[C@H]1CN(C(=O)CCCc2ccc(F)cc2)C[C@@H]1C1CC1`, the cytotoxicity at 70.5 h is -7.35%. In the case of `COc1cc(NCC(c2ccccn2)N2CCOCC2)ncn1` (centres undefined) it was -3.18%; in that of `Cc1nc2c(NC(CC(C)(C)C)c3cccnc3)ncnc2o1` (centres undefined), -10.9%; in that of `O=C(NCCC1CN(C2CCCC2)CCO1)c1cc(=O)[nH]c(=O)[nH]1` (centres undefined), -11.6%. In the case of `Cc1ccc(F)cc1CC(=O)N1CC[C@@]2(O)CCNC[C@H]2C1` it was -5.81%; in that of `Cc1ocnc1C(=O)N1CCC(c2nccn2Cc2ccncc2)CC1`, -6.78%; in that of `Cc1ccc(-c2ccnc(N[C@H]3COC[C@@H]3N3CCCC3)n2)c(C)n1`, -10.9%. The same measure for `CC(C)N(C)S(=O)(=O)c1ccc2c(c1)CCN(C(=O)c1cccnn1)C2`: -13.5%; for `Cc1nccnc1N1C[C@H]2CN(C3CCOCC3)C[C@@]2(C(=O)O)C1`: 2.61%; for `CCCOC1CCCN(c2nc(COC)nc3c2cnn3C)C1` (centres undefined): -19%. As for `c1ccc(OCc2noc(CN3CCN(C4CCCC4)CC3)n2)cc1`, the cytotoxicity at 70.5 h came out at 9.68%. In the case of `CC(NS(C)(=O)=O)C(=O)N(C)Cc1cnn(-c2ccc(F)cc2)c1` (centres undefined) it was 3.12%. In the case of `C/C(=C\c1ccco1)CN(C)C(C)Cc1cc(C)ccn1` (centres undefined) it was -0.46%; in that of `CC(C)c1nccn1CCCNC(=O)c1ccc(-c2cnn(C)c2)nc1`, -5.24%.

`CCCC(=O)NCC1CCCN(Cc2cc(C)c(C)o2)C1` (centres undefined): the cytotoxicity at 70.5 h stood at 0.818%. The same measure for `Cc1cccc(N2CCC(N3CCC4(CN(C)C(=O)O4)C3)CC2)c1C` (centres undefined): -9.4%; for `CS(=O)(=O)N1CCOC(CNC(=O)c2cccc(C#N)c2)C1` (centres undefined): 3.98%. For `CSCCC(O)C(=O)N1CCCN(Cc2cccnc2)CC1` (centres undefined), the cytotoxicity at 70.5 h was -9.6%. Turning to `CCn1nc(C)c(C(=O)N2C[C@@H](CN(C)CCOC)[C@@H](CO)C2)c1C`, the cytotoxicity at 70.5 h is -6.72%. The same measure for `CC(C)Cc1nc(CCn2cncn2)n(-c2ccc3c(c2)OCCO3)n1`: -18%; for `CCCN1CCN(c2ccc(-c3nc(C)no3)cn2)CC1`: 13%; for `Cc1nc(CCCNC(=O)[C@H]2CNC[C@@H](C(=O)N3CCCC3)C2)sc1C`: -5.47%. The same measure for `Cc1cc2nc(C(C)C)cc(NCCc3cccn3C)n2n1`: -8.08%; for `Cc1cc(CN[C@@H](Cc2ccccc2)C(N)=O)c(C)s1`: -14.1%; for `COc1cccc2c1OCC(C(=O)N1CCN(C3CCCC3)C(=O)C1)C2` (centres undefined): -5.59%. In the case of `CN(C)Cc1ccc(C2CCCCN2C(=O)c2cccnn2)cc1` (centres undefined) it was 2.83%; in that of `CSCc1nc(CNC(=O)c2cnn(C(C)C)c2)cs1`, -11.2%; in that of `CSc1nccc(N2CCC(NCc3ccc4c(c3)OCO4)CC2)n1`, 4.69%. With `Cc1cc2[nH]c(CN3CCOC(c4ccc(Cl)cc4)C3)cc(=O)n2n1` (centres undefined), the cytotoxicity at 70.5 h is -2.79%. With `CC(C)(CN1CCCC1)CN1CCC(Cn2cc(CCO)nn2)CC1`, the cytotoxicity at 70.5 h was 18.9%. In the case of `CN(C)Cc1ccc(C(=O)N2CCCC(COc3ccc(F)cc3)C2)o1` (centres undefined) it was -5.29%; in that of `CN(C)c1nc2c(c(N3CCC(O)CC3)n1)CN(CC(C)(C)C)CC2`, -13.5%. In the case of `CC1(C)CC(N2CCN(C3CCCC3)C(CCO)C2)CC(C)(C)C1` (centres undefined) it was -8.65%; in that of `CCn1c(C2CCN(C(=O)c3ccc4sc(C)nc4c3)CC2)n[nH]c1=O`, -17.3%.
